Reference: US9708314B2, “Heterocyclic amide compound” (NISSAN CHEMICAL INDUSTRIES, LTD., priority 2013, dated 2017)

Columns and labels:
Type in all cases: in vivo
[1] = tested on: Echinochloa oryzacola Vasing.; assay: Test Example 2: herbicidal activity, application during weed generation in submerged conditions; conditions: Eighteenth Table; application herbicide amount 320 g/ha
Summary of the method: (§1)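 Paddy-type pot test: flooded soil, 4 cm depth, greenhouse 25–30 °C. Emulsion formulation diluted in water, applied to water surface at 1–2 leaf stage; rate expressed as g/ha. Read-out at 3 wk, 0–5 score.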

[2] = tested on: Scirpus juncoides; assay: as above; conditions: Eighteenth Table; application herbicide amount 320 g/ha
Summary of the method: as §1

[3] = tested on: Monochoria vaginalis; assay: as above; conditions: Eighteenth Table; application herbicide amount 320 g/ha
Summary of the method: as §1

[4] = tested on: transplanted Oryza sativa; assay: Test Example 1: effect on crop, application before weed generation in submerged conditions; conditions: Application herbicide amount 320 g/ha; Seventeenth Table
Summary of the method: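 Submerged pot test: alluvial soil, 4 cm water, seeds sown mixed, 2.5-leaf rice transplanted; emulsion in water applied to surface day of sowing, dose g/ha; greenhouse 25–30° C.; 3 wk; 0–5 rating.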

[5] = tested on: Echinochloa crus-galli var. crus-galli; assay: Test Example 3: herbicidal effect by application to foliage (Wagner pot, water depth 0.1-0.5 cm); conditions: Nineteenth Table; application to foliage; application herbicide amount 320 g/ha
Summary of the method: (§2)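 Post-emergence foliar application at a stated g/ha rate to plants grown 14 days from seed in alluvial soil, greenhouse 25–30 °C. Visual score after 3 weeks: 0 (≤5% effect) through 5 (≥90%).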

[6] = tested on: Cyperus difformis; assay: as above; conditions: Nineteenth Table; application to foliage; application herbicide amount 320 g/ha
Summary of the method: as §2

[7] = tested on: Leptochloa chinensis; assay: as above; conditions: Nineteenth Table; application to foliage; application herbicide amount 320 g/ha
Summary of the method: as §2

| SMILES | A (Echinochloa oryzicola Vasing.) herbicidal ratio grade [1] | B (Scirpus juncoides) herbicidal ratio grade [2] | C (Monochoria vaginalis) herbicidal ratio grade [3] | a: transplanted Oryza sativa (effect on crop grade) [4] | H (herbicidal effect grade) [5] | E (herbicidal effect grade) [6] | D (herbicidal effect grade) [7] |
| --- | --- | --- | --- | --- | --- | --- | --- |
| Cc1nnc(NC(=O)c2ccc(C(F)(F)F)n3c(-c4cc5ccccc5n4C)nnc23)o1 [1-059] | 2 (Herbicidal ratio of 20% or more and less than 40%) | 3 (Herbicidal ratio of 40% or more and less than 70%) | 2 (Herbicidal ratio of 20% or more and less than 40%) | 0 (Herbicidal ratio of 5% or less (almost no effect)) | 0 (Herbicidal ratio of 5% or less (almost no effect)) | 3 (Herbicidal ratio of 40% or more and less than 70%) | 3 (Herbicidal ratio of 40% or more and less than 70%) |
| COCCOC(=O)Cc1nnc2c(C(=O)Nc3nnc(C)o3)ccc(C(F)(F)F)n12 [1-060] | 2 (Herbicidal ratio of 20% or more and less than 40%) | 3 (Herbicidal ratio of 40% or more and less than 70%) | 2 (Herbicidal ratio of 20% or more and less than 40%) | 2 (Herbicidal ratio of 20% or more and less than 40%) | 5 (Herbicidal ratio of 90% or more (almost completely withered)) | 3 (Herbicidal ratio of 40% or more and less than 70%) | 4 (Herbicidal ratio of 70% or more and less than 90%) |
| CC(=O)OCc1nnc2c(C(=O)Nc3nnc(C)o3)ccc(C(F)(F)F)n12 [1-062] | 2 (Herbicidal ratio of 20% or more and less than 40%) | 2 (Herbicidal ratio of 20% or more and less than 40%) | 2 (Herbicidal ratio of 20% or more and less than 40%) | 0 (Herbicidal ratio of 5% or less (almost no effect)) | 5 (Herbicidal ratio of 90% or more (almost completely withered)) | 4 (Herbicidal ratio of 70% or more and less than 90%) | 4 (Herbicidal ratio of 70% or more and less than 90%) |
| COCCSc1nnc2c(C(=O)Nc3nnc(C)o3)ccc(C(F)(F)F)n12 [1-063] | 4 (Herbicidal ratio of 70% or more and less than 90%) | 3 (Herbicidal ratio of 40% or more and less than 70%) | 2 (Herbicidal ratio of 20% or more and less than 40%) | 0 (Herbicidal ratio of 5% or less (almost no effect)) | 5 (Herbicidal ratio of 90% or more (almost completely withered)) | 5 (Herbicidal ratio of 90% or more (almost completely withered)) | 5 (Herbicidal ratio of 90% or more (almost completely withered)) |
| C=CCSc1nnc2c(C(=O)Nc3nnc(C)o3)ccc(C(F)(F)F)n12 [1-064] | 2 (Herbicidal ratio of 20% or more and less than 40%) | 3 (Herbicidal ratio of 40% or more and less than 70%) | 2 (Herbicidal ratio of 20% or more and less than 40%) | 0 (Herbicidal ratio of 5% or less (almost no effect)) | 5 (Herbicidal ratio of 90% or more (almost completely withered)) | 4 (Herbicidal ratio of 70% or more and less than 90%) | 4 (Herbicidal ratio of 70% or more and less than 90%) |
| CN(C)c1nnc2c(C(=O)Nc3nnco3)ccc(C(F)(F)F)n12 [1-103] | 4 (Herbicidal ratio of 70% or more and less than 90%) | 5 (Herbicidal ratio of 90% or more (almost completely withered)) | 4 (Herbicidal ratio of 70% or more and less than 90%) | 3 (Herbicidal ratio of 40% or more and less than 70%) | 5 (Herbicidal ratio of 90% or more (almost completely withered)) | 5 (Herbicidal ratio of 90% or more (almost completely withered)) | 5 (Herbicidal ratio of 90% or more (almost completely withered)) |
| Cc1nnc(NC(=O)c2ccc(C(F)(F)F)n3c(CC4CC4)nnc23)o1 [1-104] | 4 (Herbicidal ratio of 70% or more and less than 90%) | 3 (Herbicidal ratio of 40% or more and less than 70%) | 3 (Herbicidal ratio of 40% or more and less than 70%) | 0 (Herbicidal ratio of 5% or less (almost no effect)) | 5 (Herbicidal ratio of 90% or more (almost completely withered)) | 4 (Herbicidal ratio of 70% or more and less than 90%) | 5 (Herbicidal ratio of 90% or more (almost completely withered)) |
| Cc1nnc(NC(=O)c2ccc(C(F)(F)F)n3c(C4(C)CC4(Cl)Cl)nnc23)o1 (stereo not shown) [1-105] | 3 (Herbicidal ratio of 40% or more and less than 70%) | 4 (Herbicidal ratio of 70% or more and less than 90%) | 3 (Herbicidal ratio of 40% or more and less than 70%) | 0 (Herbicidal ratio of 5% or less (almost no effect)) | 5 (Herbicidal ratio of 90% or more (almost completely withered)) | 5 (Herbicidal ratio of 90% or more (almost completely withered)) | 5 (Herbicidal ratio of 90% or more (almost completely withered)) |
| CCSc1nnc2c(C(=O)Nc3nnco3)ccc(C(F)(F)F)n12 [1-106] | 5 (Herbicidal ratio of 90% or more (almost completely withered)) | 5 (Herbicidal ratio of 90% or more (almost completely withered)) | 4 (Herbicidal ratio of 70% or more and less than 90%) | 1 (Herbicidal ratio of 5% or more and less than 20%) | 5 (Herbicidal ratio of 90% or more (almost completely withered)) | 5 (Herbicidal ratio of 90% or more (almost completely withered)) | 5 (Herbicidal ratio of 90% or more (almost completely withered)) |
| Cc1nnc(NC(=O)c2ccc(C(F)(F)F)n3c(SCC4CC4)nnc23)o1 [1-115] | 3 (Herbicidal ratio of 40% or more and less than 70%) | 3 (Herbicidal ratio of 40% or more and less than 70%) | – | 0 (Herbicidal ratio of 5% or less (almost no effect)) | 5 (Herbicidal ratio of 90% or more (almost completely withered)) | 4 (Herbicidal ratio of 70% or more and less than 90%) | 4 (Herbicidal ratio of 70% or more and less than 90%) |
| CSCCNc1nnc2c(C(=O)Nc3nnc(C)o3)ccc(C(F)(F)F)n12 [1-130] | – | – | – | 1 (Herbicidal ratio of 5% or more and less than 20%) | 5 (Herbicidal ratio of 90% or more (almost completely withered)) | 2 (Herbicidal ratio of 20% or more and less than 40%) | 4 (Herbicidal ratio of 70% or more and less than 90%) |
| CC(C)c1nnc2c(C(=O)Nc3nnc(C[S+](C)[O-])o3)ccc(C(F)(F)F)n12 (stereo not shown) [1-143] | – | – | – | 0 (Herbicidal ratio of 5% or less (almost no effect)) | 4 (Herbicidal ratio of 70% or more and less than 90%) | 4 (Herbicidal ratio of 70% or more and less than 90%) | 2 (Herbicidal ratio of 20% or more and less than 40%) |
| COc1ccc(N(C)c2nnc3c(C(=O)Nc4nnc(C)o4)ccc(C(F)(F)F)n23)cc1 [1-165] | 2 (Herbicidal ratio of 20% or more and less than 40%) | 2 (Herbicidal ratio of 20% or more and less than 40%) | – | 0 (Herbicidal ratio of 5% or less (almost no effect)) | 5 (Herbicidal ratio of 90% or more (almost completely withered)) | – | 4 (Herbicidal ratio of 70% or more and less than 90%) |
| COc1ccc(CN(C)c2nnc3c(C(=O)Nc4nnc(C)o4)ccc(C(F)(F)F)n23)cc1 [1-167] | – | – | – | 0 (Herbicidal ratio of 5% or less (almost no effect)) | 1 (Herbicidal ratio of 5% or more and less than 20%) | – | 2 (Herbicidal ratio of 20% or more and less than 40%) |
| COC1CCC(c2nnc3c(C(=O)Nc4nnc(C)o4)ccc(C(F)(F)F)n23)CC1 (stereo not shown) [1-169] | 3 (Herbicidal ratio of 40% or more and less than 70%) | 4 (Herbicidal ratio of 70% or more and less than 90%) | 4 (Herbicidal ratio of 70% or more and less than 90%) | 0 (Herbicidal ratio of 5% or less (almost no effect)) | 5 (Herbicidal ratio of 90% or more (almost completely withered)) | – | 4 (Herbicidal ratio of 70% or more and less than 90%) |
